Data: patent US8063221B2, “Aminoquinolones as GSK-3 inhibitors” (Kyorin Pharmaceutical Co., Ltd., priority 2006, dated 2011)
≈ marks a conversion by molar mass, not a printed value. Where two headings read alike, the source gives them in different places.

Experiments:
[1] = molecular target: T1, recombinant full-length human GSK3β (Homo sapiens, UniProt P49841); test: Luciferase-coupled cell-free GSK3β kinase assay; type: biochemical
T1 construct: recombinant full-length human GSK3β (Upstate); purchased Upstate
How it was run: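 GSK3β, 10-25 ng, was incubated with compound for 1 h at 30° C in MOPS pH 7.0 buffer containing 62.5 μM phospho-glycogen synthase peptide-2 and 5 μM ATP. Remaining ATP was read by KinaseGlo luminescence, and IC50 was fitted from % inhibition relative to maximal inhibition.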

[2] = system: E. coli, ATCC8739; test: Antibacterial activity (MIC), E. coli; type: cell-based; details: Escherichia coli
From the text: (§1) As used herein, a minimum inhibitory concentration (MIC) for bacterial growth assay is the lowest level of a compound needed to cause an inhibition to bacterial growth in culture medium. In certain embodiments, the antibacterial activity of compounds herein, measured as MIC.
(§2) In certain embodiments, GSK3 inhibitors provided herein are substantially free of antibacterial activity or having very low antibacterial activity. The antibacterial activity can be measured by methods known in the art by estimating a minimum inhibitory concentration (MIC) for test compounds. A MIC is the lowest level of a compound needed to cause an inhibition to bacterial growth in a culture medium. […] (Clinical and Laboratory Standards Institute. Methods for Dilution Antimicrobial Susceptibility Tests for Bacteria That Grow Aerobically; Approved Standard-Sixth Edition: CLSI document […]. CLSI, Wayne, Pa. (2003))
(§3) Antibacterial activity for E. coli, ATCC8739 andS. aureus Smith expressed as MIC (μM) is provided as follows: […]

[3] = system: S. aureus Smith; test: Antibacterial activity (MIC), S. aureus; type: cell-based; details: Staphylococcus aureus
From the text: as §1, §2, §3

[4] = ATCC8739, Table 2, E. coli ATCC8739, read-out: Antimicrobial MIC [μM] E. Coli
[5] = Table 2, S. aureus Smith, read-out: Antimicrobial MIC [μM] S. aureus
[6] = ATCC8739, Table 1, E. coli ATCC8739, read-out: Antibacterial MIC (μM) E.Coli
[7] = Table 1, read-out: Antibacterial MIC (μM) S. aureus Smith
[8] = ATCC8739, read-out: Antibacterial MIC (μM) E.Coli
[9] = read-out: Antibacterial MIC (μM) S. aureus Smith

T1 sequence (P49841 whole entry): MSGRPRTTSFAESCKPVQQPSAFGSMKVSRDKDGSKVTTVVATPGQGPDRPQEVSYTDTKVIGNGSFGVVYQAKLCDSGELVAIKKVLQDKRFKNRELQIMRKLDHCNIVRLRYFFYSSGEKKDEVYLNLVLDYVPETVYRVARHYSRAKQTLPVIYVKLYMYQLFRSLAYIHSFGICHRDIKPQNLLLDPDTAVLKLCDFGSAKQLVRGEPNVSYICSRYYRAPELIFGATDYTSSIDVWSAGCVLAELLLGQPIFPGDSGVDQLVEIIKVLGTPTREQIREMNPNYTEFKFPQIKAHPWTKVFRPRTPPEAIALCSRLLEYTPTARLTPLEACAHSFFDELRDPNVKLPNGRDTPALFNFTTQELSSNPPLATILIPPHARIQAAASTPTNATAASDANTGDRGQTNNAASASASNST

Row | SMILES | IC50 ([1]; Table 2) | MIC [2, 4] | MIC [3, 5] | IC50 ([1]; Table 1) | MIC [2, 6] | MIC [3, 7] | MIC [2, 8] | MIC [3, 9]
1 | CC(C)C[C@H]1COc2c(NCCNc3ccccn3)c(F)c(N)c3c(=O)c(C(=O)O)cn1c23 [compound 51] | < 0.1 µM | 10 to 50 µM (≈ 4.55 to 22.8 µg/mL) | 10 to 50 µM (≈ 4.55 to 22.8 µg/mL) |  |  |  |  | 
2 | CC1(C)COc2c(NCCCn3cnc4ccccc43)c(F)c(N)c3c(=O)c(C(=O)O)cn(c23)C1 [compound 52] | 0.1 to 0.5 µM | 0.5 to 10 µM (≈ 0.24 to 4.8 µg/mL) | 0.5 to 10 µM (≈ 0.24 to 4.8 µg/mL) |  |  |  |  | 
3 | Nc1c(F)c(NCCCc2ccccc2)c(F)c2c1c(=O)c(C(=O)O)cn2C1CCCC1 [compound 52] |  |  |  | < 0.1 µM | 10 to 50 µM (≈ 4.41 to 22.1 µg/mL) | 10 to 50 µM (≈ 4.41 to 22.1 µg/mL) |  | 
4 | Nc1c(F)c(NCCc2ccncc2)c(F)c2c1c(=O)c(C(=O)O)cn2C1CCCC1 [compound 53] |  |  |  | 0.1 to 0.5 µM | 10 to 50 µM (≈ 4.28 to 21.4 µg/mL) | 10 to 50 µM (≈ 4.28 to 21.4 µg/mL) |  | 
5 | CC(C)[C@H]1COc2c(NCCCn3ccnc3)c(F)c(N)c3c(=O)c(C(=O)O)cn1c23 [compound 54] | < 0.1 µM | > 50 µM | 10 to 50 µM (≈ 4.29 to 21.5 µg/mL) |  |  |  |  | 
6 | Nc1c(F)c(NCCCn2ccnc2)c(F)c2c1c(=O)c(C(=O)O)cn2C1CCCC1 [compound 54] |  |  |  | < 0.1 µM | > 50 µM | > 50 µM |  | 
7 | CC(C)OCCCNc1c(F)c(N)c2c(=O)c(C(=O)O)cn(C3CCCC3)c2c1F [compound 55] |  |  |  | < 0.1 µM |  |  | 10 to 50 µM (≈ 4.23 to 21.2 µg/mL) | 10 to 50 µM (≈ 4.23 to 21.2 µg/mL)
8 | CC1(C)Cn2cc(C(=O)O)c(=O)c3c(N)c(F)c(NCCCn4cnc5ccccc54)c(c32)O1 [compound 56] | 0.1 to 0.5 µM | 10 to 50 µM (≈ 4.65 to 23.3 µg/mL) | 10 to 50 µM (≈ 4.65 to 23.3 µg/mL) |  |  |  |  | 
9 | Nc1c(F)c(NCCCCc2ccccc2)c(F)c2c1c(=O)ccn2C1CC1 [compound 57] |  |  |  | 0.5 to 1 µM | 10 to 50 µM (≈ 3.83 to 19.2 µg/mL) | 10 to 50 µM (≈ 3.83 to 19.2 µg/mL) |  | 
10 | CC1(C)Cn2cc(C(=O)O)c(=O)c3c(N)c(F)c(NCCCn4ccnc4)c(c32)O1 [compound 58] | 0.1 to 0.5 µM | > 50 µM | > 50 µM |  |  |  |  | 
11 | CC1(C)Cn2cc(C(=O)O)c(=O)c3c(N)c(F)c(NCCCc4ccccc4)c(c32)O1 [compound 59] | 0.1 to 0.5 µM | 10 to 50 µM (≈ 4.25 to 21.3 µg/mL) | 10 to 50 µM (≈ 4.25 to 21.3 µg/mL) |  |  |  |  | 
12 | CC(C)[C@H]1COc2c(NCCNc3ccccn3)c(F)c(N)c3c(=O)c(C(=O)O)cn1c23 [compound 60] | < 0.1 µM | 10 to 50 µM (≈ 4.41 to 22.1 µg/mL) | 10 to 50 µM (≈ 4.41 to 22.1 µg/mL) |  |  |  |  | 
13 | Nc1c(F)c(NCCCn2ccnc2)c(F)c2c1c(=O)c(C(=O)O)cn2CCCn1ccnc1 [compound 61] |  |  |  | 0.1 to 0.5 µM |  |  | > 50 µM | > 50 µM
14 | CC(C)[C@@H]1COc2c(NCCNc3ccccn3)c(F)c(N)c3c(=O)c(C(=O)O)cn1c23 [compound 62] | < 0.1 µM | 0.5 to 10 µM (≈ 0.221 to 4.41 µg/mL) | 0.5 to 10 µM (≈ 0.221 to 4.41 µg/mL) |  |  |  |  | 
15 | CC(C)[C@@H]1COc2c(NCCCn3ccnc3)c(F)c(N)c3c(=O)c(C(=O)O)cn1c23 [compound 63] | < 0.1 µM | > 50 µM | 10 to 50 µM (≈ 4.29 to 21.5 µg/mL) |  |  |  |  | 
16 | CC(C)[C@@H]1COc2c(NCCCc3ccccc3)c(F)c(N)c3c(=O)c(C(=O)O)cn1c23 [compound 64] | < 0.1 µM | 0.5 to 10 µM (≈ 0.22 to 4.39 µg/mL) | 0.5 to 10 µM (≈ 0.22 to 4.39 µg/mL) |  |  |  |  | 

Continued, in another order:

Row | IC50 ([1]; Table 2) | MIC [2, 4] | MIC [3, 5] | IC50 ([1]; Table 1) | MIC [2, 6] | MIC [3, 7] | SMILES | MIC [2, 8] | MIC [3, 9]
17 |  |  |  | 0.1 to 0.5 µM | 10 to 50 µM (≈ 5.29 to 26.4 µg/mL) | 10 to 50 µM (≈ 5.29 to 26.4 µg/mL) | Nc1c(F)c(NCCNc2cccc3ccccc23)c(F)c2c1c(=O)c(C(=O)O)cn2CCc1ccccc1 [compound 51] |  | 
18 |  |  |  | < 0.1 µM | 10 to 50 µM (≈ 4.93 to 24.6 µg/mL) | 10 to 50 µM (≈ 4.93 to 24.6 µg/mL) | Nc1c(F)c(NCCNc2cccc3ccccc23)c(F)c2c1c(=O)c(C(=O)O)cn2C1CCCC1 [compound 56] |  | 
19 |  |  |  | 0.1 to 0.5 µM | 10 to 50 µM (≈ 4.34 to 21.7 µg/mL) | 10 to 50 µM (≈ 4.34 to 21.7 µg/mL) | Nc1c(F)c(NCCCc2ccccc2)c(F)c2c1c(=O)ccn2CCc1ccccc1 [compound 58] |  | 
20 |  |  |  | 0.1 to 0.5 µM | > 50 µM | > 50 µM | Nc1c(F)c(NCCc2ccncc2)c(F)c2c1c(=O)ccn2CCc1ccccc1 [compound 59] |  | 
21 |  |  |  | 0.5 to 1 µM | 10 to 50 µM (≈ 4.15 to 20.8 µg/mL) | 10 to 50 µM (≈ 4.15 to 20.8 µg/mL) | CC(C)OCCCNc1c(F)c(N)c2c(=O)ccn(CCc3ccccc3)c2c1F [compound 60] |  | 
22 |  |  |  | 0.1 to 0.5 µM | 10 to 50 µM (≈ 4.35 to 21.8 µg/mL) | 10 to 50 µM (≈ 4.35 to 21.8 µg/mL) | Nc1c(F)c(NCCNc2ccccn2)c(F)c2c1c(=O)ccn2CCc1ccccc1 [compound 63] |  | 
23 |  |  |  | 0.1 to 0.5 µM | 10 to 50 µM (≈ 4.85 to 24.2 µg/mL) | 10 to 50 µM (≈ 4.85 to 24.2 µg/mL) | Nc1c(F)c(NCCNc2cccc3ccccc23)c(F)c2c1c(=O)ccn2CCc1ccccc1 [compound 64] |  | 
